Source: patent US20220257569A1, “INDOLE-OXADIAZOLE COMPOUNDS AND THEIR THERAPEUTIC USE” (THE GOVERNING COUNCIL OF THE UNIVERSITY OF TORONTO, priority 2018, published 2022)

What was measured:
[1] = target: T1, cannabinoid CB1 receptor (Homo sapiens, UniProt P21554); test: PathHunter β-Arrestin assay (allosteric inhibition of agonist Emax); format: cell-based; settings: HEK293 CB1 β-arrestin cells; concentration of modulator giving 50% reduction in agonist Emax; 60 min pre-incubation
T1 construct: host or cells: HEK293 CB1 β-arrestin cells
Text: PathHunter™ enzyme fragment complementation is the most important method to measure β-arrestin recruitment. PathHunter™ β-Arrestin assays developed by DiscoveRX are revolutionary high-throughput screening assays for monitoring GPCR activation following ligand stimulation, without an imaging instrument, fluorescent protein tag, or radioactivity.
Instead, the assays detect GPCR activation through binding of β-arrestin to the expressed GPCR of interest, and measure the interaction of the two proteins using enzyme fragment complementation (EFC). The EFC approach offers a range of benefits for screening, including signal amplification and robust performance.
The larger portion of β-gal, termed EA for enzyme acceptor, is fused to the C-terminus of β-arrestin. The smaller, complementing fragment of β-gal, the ProLink™ tag, is expressed as a fusion protein with the GPCR of interest at the C-terminus. Upon activation, the GPCR is bound by β-arrestin. The interaction of β-arrestin and the GPCR forces the interaction of ProLink and EA, thus allowing complementation of the two fragments of β-gal and the formation of a functional enzyme capable of hydrolyzing substrate and generating a […] signal.
Using the PathHunter™ CB1 kit from DiscoveRX, a cannabinoid CB1 receptor agonist is added and activates the receptor, EA, which is fused to the C-terminus of β-arrestin, and then interacts with the ProLink™ tag which is fused to the CB1 receptor. This will result in the […] signal that is recorded by a luminescence plate reader. The […] signal is directly related to the activation of the receptor, therefore a higher concentration of agonist will yield a larger […] signal. The cannabinoid agonist is added in increasing concentrations to obtain an agonist dose response curve. With pre-incubation of a potential allosteric modulator, either an enhancement of agonist activity with an allosteric enhancer or a decrease in the maximal response of the agonist with an allosteric inhibitor is expected.
All raw data are obtained as luminescence (relative light units), and are normalised and presented as a percentage of the maximal response for the cannabinoid CB1 receptor agonist CP55,940 (2-[(1R,2R,5R)-5-hydroxy-2-(3-hydroxypropyl)cyclohexyl]-5-(2-methyloctan-2-yl)phenol).
The PathHunter™ β-Arrestin assay (from DiscoveRX, Fremont, USA) was performed as follows. HEK293 CB1 β-arrestin cells were plated 48 hours before use and incubated at 37° C., 5% CO2 in a humidified incubator. Test compounds were dissolved in dimethylsulfoxide (DMSO) and diluted in optimized cell culture (OCC, as supplied by DiscoveRX) media to the required concentrations. 5 μL of test compound or vehicle solution was added to each well and incubated for 60 minutes at 37° C., 5% CO2 in a humidified incubator. 5 μL of increasing concentrations of anandamide was added to each well followed by a 90-minute incubation at 37° C., 5% CO2 in a humidified incubator. 55 μL of detection reagent (as supplied by DiscoveRX) was then added, followed by a further 90 minute incubation at room temperature in the dark. Chemiluminescence, reported in relative light units (RLU—a dimensionless value, standardised as a % of maximum stimulation with anandamide), was measured on a standard luminescence plate reader.
Data were plotted as % of maximal stimulation (Emax) caused by agonist versus the logarithm of concentration of agonist, in the presence or absence of a fixed concentration of test compound (modulator) or vehicle. For example, stimulation in the presence of agonist alone will give a value for stimulation expressed in RLU, which can be expressed as a range from 0% (at lowest agonist concentration, e.g., 1 nM) to 100% (at the highest agonist concentration, e.g., 10 μM). […]

[2] = Human liver microsomal stability assay; format: in vitro ADME; settings: both sexes, pH 7.4; pooled human liver microsomes 0.5 mg/mL, 3 μM compound, NADPH, 37° C., 45 min; read-out: Microsomal stability T1/2 Human
Method: (§1) Metabolic stability of indole-oxadiazole derivatives of Formula I was measured by determination of the rate of compound disappearance when incubated in the presence of human or rat liver microsomes. Liver microsomes are prepared from the endoplasmic reticulum of hepatocytes and are the primary source of the most important enzymes (cytochrome P450) involved in drug metabolism. Study of drug stability in the presence of liver microsomes is accepted as a valuable model permitting rapid prediction of in vivo drug stability.
(§2) Human and rat liver microsomes were obtained from commercial sources. Test compounds (3 μM) were incubated with pooled liver microsomes (male and female). Samples were incubated for a 45 minute period and removed at 5 time points and test compounds were analysed by LC-MS/MS.
(§3) Microsomes (final protein concentration 0.5 mg/mL), 0.1 M phosphate buffer pH 7.4, and test compound (final concentration 3 μM; diluted from 10 mM stock solution to give a final DMSO concentration of 0.25%) were incubated at 37° C. prior to the addition of NADPH (final concentration 1 mM) to initiate the reaction. The final incubation volume was 25 μL. A control incubation was included for each compound tested, where 0.1 M phosphate buffer pH 7.4 was added instead of NADPH. The control compounds testosterone and 7-hydroxycoumarin were included in each experiment and all incubations were performed singularly for each compound.
(§4) Each compound was incubated for 0, 5, 15, 30, and 45 minutes. The control (minus NADPH) was incubated for 45 minutes only. The reactions were stopped by the addition of 50 μL methanol containing internal standard at the appropriate time points. The incubation plates were centrifuged at 2500 rpm for 20 minutes at 4° C. to precipitate the protein.
(§5) Following protein precipitation, the sample supernatants were combined in cassettes of up to 4 compounds and analysed using standard LC-MS/MS conditions.
(§6) From a plot of the natural logarithm of the peak area ratio (i.e., the ratio of compound peak area:internal standard peak area) against time, the gradient of the line was determined. Subsequently, half-life and intrinsic clearance were calculated using the equations below:
(§7) Eliminated rate constant (k)=(−gradient).

[3] = Rat liver microsomal stability assay; format: in vitro ADME; settings: both sexes, pH 7.4; pooled rat liver microsomes 0.5 mg/mL, 3 μM compound, NADPH, 37° C., 45 min; read-out: Microsomal stability T1/2 Rat
Method: as §1, §2, §3, §4, §5, §6, §7

[4] = target: T2, CB1 receptor (Mus musculus, UniProt P47746); settings: equilibrium binding assay, cited from earlier work; for effect on binding of CP55940: agonist CP55940
[5] = target: T2, CB1 receptor; design: from the CB1 receptor in mouse brain membranes; from tissue; host or cells: mouse brain membranes; settings: mouse brain membranes; cited from earlier work

T1 sequence (P21554 whole entry): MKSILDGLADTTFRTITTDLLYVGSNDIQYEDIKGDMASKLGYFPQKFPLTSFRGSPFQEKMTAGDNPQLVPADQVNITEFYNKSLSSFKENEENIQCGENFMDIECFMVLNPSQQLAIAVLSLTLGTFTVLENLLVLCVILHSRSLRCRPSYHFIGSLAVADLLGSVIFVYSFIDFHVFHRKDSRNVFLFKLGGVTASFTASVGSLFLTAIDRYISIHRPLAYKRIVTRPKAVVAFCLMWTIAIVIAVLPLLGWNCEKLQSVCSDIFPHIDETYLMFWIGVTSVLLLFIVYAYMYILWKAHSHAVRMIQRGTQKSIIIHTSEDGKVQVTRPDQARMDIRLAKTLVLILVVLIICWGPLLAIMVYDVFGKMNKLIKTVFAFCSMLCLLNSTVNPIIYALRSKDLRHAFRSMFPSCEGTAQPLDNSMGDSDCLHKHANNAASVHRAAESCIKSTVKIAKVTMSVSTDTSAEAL
T2 sequence (P47746 whole entry): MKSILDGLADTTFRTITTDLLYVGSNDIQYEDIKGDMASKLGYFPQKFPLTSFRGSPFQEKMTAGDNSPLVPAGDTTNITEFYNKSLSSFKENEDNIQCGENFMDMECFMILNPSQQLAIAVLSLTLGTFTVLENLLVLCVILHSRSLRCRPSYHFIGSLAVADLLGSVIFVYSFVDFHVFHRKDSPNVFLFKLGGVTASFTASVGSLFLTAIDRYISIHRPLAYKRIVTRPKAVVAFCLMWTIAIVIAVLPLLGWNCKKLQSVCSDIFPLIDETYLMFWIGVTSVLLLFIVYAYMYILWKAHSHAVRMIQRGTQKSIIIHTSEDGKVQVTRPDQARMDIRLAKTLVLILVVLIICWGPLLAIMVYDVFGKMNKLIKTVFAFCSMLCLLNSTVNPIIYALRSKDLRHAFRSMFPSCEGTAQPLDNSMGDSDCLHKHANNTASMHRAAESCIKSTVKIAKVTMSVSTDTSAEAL

Row | IC50 [1] [µM] | half-life at 3 μM [2] [min] | half-life at 3 μM [3] [min] | melting point [°C] | Compound | effect on binding of CP55940 [4] | effect on binding of radiolabelled inverse agonist SR141716A [4] | effect on dissociation of radiolabelled CB1 receptor agonist CP55940 [5]
1 | 0.001 | 174 | 292 | 243 to 245 | CCc1c(-c2nnc(Nc3ccc(F)cc3)o2)[nH]c2ccc(Br)cc12 [ABM338, 5-(5-Bromo-3-ethyl-1H-indol-2-yl)-N-(4-fluorophenyl)-1,3,4-oxadiazol-2-amine] |  |  | 
2 | 0.019 | 40 | 23 | 185 to 187 | CCc1c(-c2nnc(SCc3ccc(F)cc3)o2)[nH]c2ccc(Br)cc12 [ABM340, 2-(5-Bromo-3-ethyl-1H-indol-2-yl)-5-((4-fluorobenzyl)thio)-1,3,4-oxadiazole] |  |  | 
3 |  |  |  |  | CCc1c(C(=O)NC2CCN(Cc3ccccc3)C2)[nH]c2ccc(Cl)cc12 (stereo not drawn) [ORG29647] | increase | decrease | slowing of the dissociation
4 | 0.058 | 46 | 40 | 180 to 182 | CCc1c(-c2nnc(SCc3ccccc3)o2)[nH]c2ccc(Cl)cc12 [ABM328, 2-(Benzylthio)-5-(5-chloro-3-ethyl-1H-indol-2-yl)-1,3,4-oxadiazole] |  |  | 
5 |  | 32 | 28 |  | CCc1c(C(=O)NCCc2ccc(N3CCCCC3)cc2)[nH]c2ccc(Cl)cc12 [Reference compound 1 (Org27569)] | increase | decrease | slowing of the dissociation
6 |  |  |  |  | CCc1c(C(=O)NCCc2ccc(N(C)C)cc2)[nH]c2ccc(F)cc12 [ORG27759] | increase | decrease | slowing of the dissociation
7 |  | 39 | 48 |  | O=S(=O)(NCc1ccc(-c2ccc(F)nc2F)cc1)c1cc2cc(Cl)ccc2[nH]1 [Reference compound 3 (ABD1085), reference compound] |  |  | 
8 |  | 56 | 32 |  | O=S(=O)(NCc1ccc(-c2ccc(F)cc2F)cn1)c1cc2cc(Cl)ccc2[nH]1 [Reference compound 2 (ABD1075), reference compound] |  |  | 
